Experimental data: patent US20060292158A1, “Method for the treatment of cancer using a novel pharmaceutical composition containing at least one dolastatin 10 derivative” (priority 2004, published 2006)
Where a name gives a salt, the structure may show the parent alone. Read-outs that look alike come from different tables or passages of the source.

Columns and labels:
[1] = test system: NCI-H460 human large cell lung carcinoma xenograft; test: Antitumor activity in NCI-H460 subcutaneous xenograft in athymic nude mice, combination with cisplatin (Example 4); format: in vivo; details: day 12
Method: The NCI-H460 human large cell lung carcinoma cell line was purchased from American Type Culture Collection (MD, U.S.A.). The cells were cultured in RPMI-1640 medium (cat. # R8758, lot 12K2310, exp 01/03; lot 82K2497, exp 08/03; Sigma-Aldrich corporation, MO, U.S.A.) supplemented with 10% (v/v) fetal bovine serum (cat. # 047115, lot # 31300124; Roche Diagnostics KK, Tokyo, Japan).
Sixty of 5-week-old male athymic nude mice (BALB/c nu/nu) were purchased from Charles River Japan, Inc. (Yokohama, Japan). All mice were kept for 8 days in the animal facility of Kamakura Research Laboratories of Chugai Pharmaceutical Co., Ltd. before subjection to the experiment.
(§1) The title compound was synthesized at Kamakura Research Laboratories of Chugai Pharmaceutical Co., Ltd. CDDP (Randa™, lot # 924150) was obtained from Nippon Kayaku Co., Ltd. (Tokyo, Japan). The title compound was dissolved in dimethyl sulfoxide (DMSO) and diluted into 2.5 % DMSO solution with saline (for Injection; Ohtsuka Pharmaceutical Industry Co., Ltd., Tokushima, Japan) at the date of administration. CDDP was diluted with saline at the date of administration.
The in vivo evaluation procedure for anticancer drugs was based on the methods described by Plowman, et al. (1997) for xenograft models. See, “Anticancer Drug Development Guide: Preclinical Screening, Clinical Trials, and Approval, Teicher B (ed) pp. 101-125, specifically Chap. 6, “Human Tumor Xenograft Models in NCI Drug Development”, hereby incorporated by reference. A single cell suspension of NCI-H460 (5.6×10^6 cells per mouse) was inoculated subcutaneously into the right flank of each mouse. The tumor volume was estimated by using the equation ab^2/2, where a and b represent tumor length and width, respectively. Mice bearing tumors of between 150 and 245 mm^3 were selected on day 7 after tumor inoculation and were randomly divided into 8 groups, consisting of 5 mice each. Mean tumor volume and body weight of the selected mice were 187 mm3 and 24.3 g, respectively. Drug administration was initiated after mice were divided into groups. The title compound (2 mg/kg or 3 mg/kg), CDDP (5 mg/kg or 6.7 mg/kg) and each vehicle were administered intravenously. Tumor volume and body weight of each mouse were measured twice a week. […] Tumor growth inhibition was calculated using the equation (1-ΔT/ΔC)×100, where ΔT represents the difference in tumor volume from the initial treatment date of the treated group and ΔC represents the difference in tumor volume from the initial treatment date of the vehicle group.

[2] = test system: HT-29 human colorectal adenocarcinoma xenograft; format: in vivo; details: day 31
Method: The HT-29 human colorectal adenocarcinoma cell line was purchased from American Type Culture Collection (Rockville, MD, U.S.A.). The cells were cultured in McCoy's 5a medium (Sigma-Aldrich Corporation, MO, U.S.A.) supplemented with 10% (v/v) fetal bovine serum (Roche Diagnostics KK, Tokyo, Japan).
Sixty of 5-week-old male athymic nude mice (BALB/c nu/nu) were purchased from Charles River Japan, Inc. (Yokohama, Japan). All mice were kept for 9 days in the animal facility of Kamakura Research Laboratories of Chugai Pharmaceutical Co., Ltd. before subjection to the experiment.
Capecitabine was dissolved by the 40 milli mol/L citrate buffered-5% Gum arabic solution (pH 6.0; Chugai Pharmaceutical Co., Ltd.).
The in vivo evaluation procedure for anticancer drugs was based on the methods described by Plowman, et al. (1997) for xenograft models. See, “Anticancer Drug Development Guide: Preclinical Screening, Clinical Trials, and Approval, Teicher B (ed) pp. 101-125, specifically Chap. 6, “Human Tumor Xenograft Models in NCI Drug Development”, hereby incorporated by reference. A single cell suspension of HT-29 (1.1×10^7 cells per mouse) was inoculated subcutaneously into the right flank of each mouse. The tumor volume was estimated by using the equation ab^2/2, where a and b represent tumor length and width, respectively. Mice bearing tumors of between 172 and 282 mm^3 were selected on day 10 after tumor inoculation and were randomly divided into 7 groups, consisting of 6 mice each. Mean tumor volume and body weight of the selected mice were 217 mm^3 and 25.0 g respectively. Drug administration was initiated after mice were divided into groups. […] Capecitabine (359 mg/kg or 539 mg/kg) and its vehicle were administered orally. Tumor volume and body weight of each mouse were measured twice a week. […] Tumor growth inhibition was calculated using the equation (1-ΔT/ΔC)×100, where ΔT represents the difference in tumor volume from the initial treatment date of the treated group and ΔC represents the difference in tumor volume from the initial treatment date of the vehicle group.

[3] = Maximum tolerated dose (neither lethality nor more than 20% body weight loss) in mice; details: BALB/c nu/nu (athymic nude), mouse, in vivo, dose with neither lethality nor more than 20% body weight loss; for MTD at 14 days: oral
Text: The in vivo evaluation procedure for anticancer drugs was based on the methods described by Plowman, et al. (1997) for xenograft models. See, “Anticancer Drug Development Guide: Preclinical Screening, Clinical Trials, and Approval, Teicher B (ed) pp. 101-125, specifically Chap. 6, “Human Tumor Xenograft Models in NCI Drug Development”, hereby incorporated by reference.
See, “Anticancer Drug Development Guide: Preclinical Screening, Clinical Trials, and Approval, Teicher B (ed) pp. 101-125, specifically Chap. 6, “Human Tumor Xenograft Models in NCI Drug Development”, hereby incorporated by reference.
The in vivo evaluation procedure for anticancer drugs was based on the methods described by Plowman, et al. (1997) for xenograft models. See, “Anticancer Drug Development Guide: Preclinical Screening, Clinical Trials, and Approval, Teicher B (ed) pp. 101-125, specifically Chap.

[4] = test system: Calu-6 human lung cancer xenograft; format: in vivo; details: 80 mg/kg (2/3 MTD) i.v. weekly x2; day 32
Method: The Calu-6 human lung carcinoma cell line was purchased from American Type Culture Collection (MD, U.S.A.). The cells were cultured in Eagle's MEM (Sigma-Aldrich corporation, MO, U.S.A.) supplemented with 0.1 milli mol/L Non-essential amino acids (Invitrogen corporation, CA, U.S.A.), 1 milli mol/L sodium pyruvate (Invitrogen corporation, CA, U.S.A.), and 10% (v/v) fetal bovine serum (Roche Diagnostics KK, Tokyo, Japan).
60 of 5-week-old male athymic nude mice (BALB/c nu/nu) were purchased from Charles River Japan, Inc. (Yokohama, Japan). All mice were kept for 8 days in the animal facility of Kamakura Research Laboratories of Chugai Pharmaceutical Co., Ltd. before subjection to the experiment.
as §1, with “Irinotecan (Topotecin™, lot. No. EQAZF13)” for “CDDP (Randa™, lot # 924150)”, “Daiichi Pharmaceutical” for “Nippon Kayaku”, “(For” for “(for”, “Irinotecan” for “CDDP”
The in vivo evaluation procedure for anticancer drugs was based on the methods described by Plowman, et al. (1997) for xenograft models. See, “Anticancer Drug Development Guide: Preclinical Screening, Clinical Trials, and Approval, Teicher B (ed) pp. 101-125, specifically Chap. 6, “Human Tumor Xenograft Models in NCI Drug Development”, hereby incorporated by reference. A single cell suspension of Calu-6 (5.7×10^6 cells per mouse) was inoculated subcutaneously into the right flank of each mouse. The tumor volume was estimated by using the equation ab^2/2, where a and b represent tumor length and width, respectively. Mice bearing tumors of between 181 and 326 mm^3 were selected on day 11 after tumor inoculation and were randomly divided into 10 groups, consisting of 5 mice each. […] Drug administration was initiated after mice were randomized and divided into groups. The tide compound (0.375 mg/kg; 0.75 mg/kg; 1.5 mg/kg or 3 mg/kg), irinotecan (80 mg/kg) and each vehicles were administered intravenously. Tumor volume and body weight of each mouse were measured twice a week. […] Tumor growth inhibition was calculated by using the equation (1-ΔT/ΔC)×100, where ΔT represents the tumor volume difference from the initial treatment date of treated group and ΔC represents the tumor volume difference from the initial treatment date of vehicle group.

SMILES: N.N.[Cl][Pt][Cl] [CDDP, cis-diamminedichloroplatinum, reference compound]
- reduction of tumor growth ([1]; 5 mg/kg (1/2 MTD) i.v. on first day): 56%
- reduction of tumor growth ([1]; 6.7 mg/kg (2/3 MTD) i.v. on first day): 66%

SMILES: CCCCCOC(=O)Nc1nc(=O)n([C@@H]2O[C@H](C)[C@@H](O)[C@H]2O)cc1F [capecitabine, reference compound]
- reduction of tumor growth ([2]; 359 mg/kg (2/3 MTD) p.o. daily for 14 days): 32%
- reduction of tumor growth ([2]; 539 mg/kg (MTD) p.o. daily for 14 days): 50%
- MTD at 14 days ([3]; 359 mg/kg): 359 mg/kg
- MTD at 14 days [3]: 539 mg/kg

SMILES: CCc1c2c(nc3ccc(OC(=O)N4CCC(N5CCCCC5)CC4)cc13)-c1cc3c(c(=O)n1C2)COC(=O)[C@]3(O)CC [irinotecan, irinotecan hydrochloride, reference compound]
- tumor growth inhibition [4]: 68%
- MTD [3]: 120 mg/kg
